Consider twelve molecules from US12059422B2 (MEI Pharma, Inc., priority 2011, dated 2024).

SMILES strings stand for the structures. pIC50: −log10 of the molar value.

Broadly, the pIC50 is the IC50 on a negative log10 scale, so that one unit is a factor of ten.

Assay [1] deals with T1, PI3Kγ (Mus musculus, UniProt Q9JHG7).
T1 construct: endogenous in cells; host or cells: RAW 264.7 (ATCC #TIB-71)
Briefly: ELISA assay for PI3Kγ: in-cell ELISA, phosphorylation of AKT (Ser473) in RAW 264.7 cells. It counts as cell-based. The note with it: cellular, pAKT (Ser473), C5a stimulation, read-out: IC50 p110γ. As for the experimental part: PI3K gamma (PI3Kγ) activity was determined by measuring the phosphorylation of AKT (Ser473) using an in-cell ELISA assay. RAW 264.7 (mouse macrophage) cells were obtained from ATCC (ATCC #TIB-71). Growth medium was DMEM (CellGro #CV-10-013-CV) supplemented with 10% fetal bovine serum, 100 IU/mL penicillin, 100 μg/mL streptomycin, and 1×MEM non-essential amino acids. Phosphate buffered saline (PBS) contained 2.7 M NaCl, 54 mM KCl, 86 mM […] (dibasic, anhydrous), and 28 mM […] (monobasic, anhydrous) at pH 7.2. Stimulation mixture (10×) was 500 ng/mL recombinant human complement component C5a (R&D systems #2037-C5-025) diluted in serum-free DMEM medium (CellGro #CV-10-013-CV). Compounds for testing were dissolved and serially diluted in 100% DMSO (total of 10 concentrations), then diluted in serum-free DMEM to 2× final assay concentration. Fixative solution (2×) was 8% formaldehyde (Amresco #M134) diluted in PBS. Permeabilization solution was PBS supplemented with 0.10% Triton X-100. Blocking buffer was obtained from LiCor (LiCor #927-40000). Wash buffer was PBS supplemented with 0.1% Tween-20. Primary antibody solution was rabbit anti-pAKT^S473 monoclonal antibody (Cell Signaling #4060) and mouse anti-total S6 (Santa Cruz #74459) diluted 1:500 and 1:2000, respectively, in the blocking buffer. Secondary antibody solution was IRDye 800CW-conjugated goat anti-rabbit IgG (LiCor #926-32211) and IRDye 680LT-conjugated goat anti-mouse IgG (LiCor #926-68020) diluted 1:1000 and 1:2000, respectively, in the blocking buffer.
(§1) RAW 264.7 cells were subcultured in growth medium and seeded into flat, clear bottom, 96-well plates (Corning #3904) at 70000 cells/well, then incubated overnight in a 37° C., 5% CO2 incubator. Growth medium in plates was replaced with 100 μL/well serum-free DMEM and incubated overnight in a 37° C., 5% CO2 incubator. Fresh serum-free DMEM (50 μL/well) was added to plates. Compound treatment was performed by adding 50 μL/well of 2× compound mixture to plates and incubating for 2 hrs at 37° C., 5% CO2, after which 11 μL/well of 10× stimulation mixture was added and plates were incubated for 3 min at 37° C., 5% CO2. Fixation was performed by adding 110 μL/well of 2× fixative solution to plates and incubating for 20 min at room temperature. Permeabilization was performed by replacing fixation solution with 150 μL/well permeabilization solution and incubating for 10 min at room temperature. Permeabilization was repeated (for a total of 2 times). Permeabilization solution was replaced with 100 μL/well blocking buffer and plates were incubated for 1 hr at room temperature, after which 100 μL/well of primary antibody solution was added and plates were incubated overnight at 4° C. Plates were washed with wash buffer, after which 100 μL/well of secondary antibody solution was added to the plates and incubated in the dark for 1 hr at room temperature. Plates were washed with wash buffer, followed by awash with PBS. After completely removing PBS, plates were scanned on the Licor Odyssey Imager. Images were quantified using Licor Odyssey application software. IC50 values were determined by curve fitting using a Collaborative Drug Discovery database (www.collaborativedrug.com).
For orientation: ELISA stands for enzyme-linked immunosorbent assay.

The target in assay [2] is T2, PI3Kβ (Homo sapiens, UniProt P42338).
T2 construct: endogenous in cells; host or cells: PC-3 (ATCC #CRL-1435)
T2 sequence (P42338 whole entry): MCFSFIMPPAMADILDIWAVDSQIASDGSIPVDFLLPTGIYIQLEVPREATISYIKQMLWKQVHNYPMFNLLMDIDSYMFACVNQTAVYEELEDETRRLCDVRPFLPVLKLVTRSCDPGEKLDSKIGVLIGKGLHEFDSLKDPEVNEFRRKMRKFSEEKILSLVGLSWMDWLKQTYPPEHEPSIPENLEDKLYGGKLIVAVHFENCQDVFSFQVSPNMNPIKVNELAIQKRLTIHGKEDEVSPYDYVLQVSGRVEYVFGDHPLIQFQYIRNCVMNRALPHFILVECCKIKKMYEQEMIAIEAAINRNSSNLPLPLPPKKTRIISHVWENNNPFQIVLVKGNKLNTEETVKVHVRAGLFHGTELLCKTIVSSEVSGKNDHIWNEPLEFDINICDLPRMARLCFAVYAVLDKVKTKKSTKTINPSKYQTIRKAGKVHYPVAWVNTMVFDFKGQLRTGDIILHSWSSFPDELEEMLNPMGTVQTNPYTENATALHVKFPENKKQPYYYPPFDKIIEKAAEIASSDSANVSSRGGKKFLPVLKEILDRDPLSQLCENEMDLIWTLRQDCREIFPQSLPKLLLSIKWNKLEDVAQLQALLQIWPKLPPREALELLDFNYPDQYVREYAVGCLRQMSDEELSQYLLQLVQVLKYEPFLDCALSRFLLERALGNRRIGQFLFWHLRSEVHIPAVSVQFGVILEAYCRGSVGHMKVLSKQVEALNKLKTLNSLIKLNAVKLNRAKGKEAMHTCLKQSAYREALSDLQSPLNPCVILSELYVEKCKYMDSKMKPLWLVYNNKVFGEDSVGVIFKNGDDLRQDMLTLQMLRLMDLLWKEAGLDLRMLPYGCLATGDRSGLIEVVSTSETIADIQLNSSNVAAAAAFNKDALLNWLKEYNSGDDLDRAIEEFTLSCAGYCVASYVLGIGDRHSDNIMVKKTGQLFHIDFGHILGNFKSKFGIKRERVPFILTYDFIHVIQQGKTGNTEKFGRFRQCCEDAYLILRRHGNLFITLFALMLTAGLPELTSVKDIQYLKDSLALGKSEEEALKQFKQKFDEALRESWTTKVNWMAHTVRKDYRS
T2 sequence (P27986 whole entry partner): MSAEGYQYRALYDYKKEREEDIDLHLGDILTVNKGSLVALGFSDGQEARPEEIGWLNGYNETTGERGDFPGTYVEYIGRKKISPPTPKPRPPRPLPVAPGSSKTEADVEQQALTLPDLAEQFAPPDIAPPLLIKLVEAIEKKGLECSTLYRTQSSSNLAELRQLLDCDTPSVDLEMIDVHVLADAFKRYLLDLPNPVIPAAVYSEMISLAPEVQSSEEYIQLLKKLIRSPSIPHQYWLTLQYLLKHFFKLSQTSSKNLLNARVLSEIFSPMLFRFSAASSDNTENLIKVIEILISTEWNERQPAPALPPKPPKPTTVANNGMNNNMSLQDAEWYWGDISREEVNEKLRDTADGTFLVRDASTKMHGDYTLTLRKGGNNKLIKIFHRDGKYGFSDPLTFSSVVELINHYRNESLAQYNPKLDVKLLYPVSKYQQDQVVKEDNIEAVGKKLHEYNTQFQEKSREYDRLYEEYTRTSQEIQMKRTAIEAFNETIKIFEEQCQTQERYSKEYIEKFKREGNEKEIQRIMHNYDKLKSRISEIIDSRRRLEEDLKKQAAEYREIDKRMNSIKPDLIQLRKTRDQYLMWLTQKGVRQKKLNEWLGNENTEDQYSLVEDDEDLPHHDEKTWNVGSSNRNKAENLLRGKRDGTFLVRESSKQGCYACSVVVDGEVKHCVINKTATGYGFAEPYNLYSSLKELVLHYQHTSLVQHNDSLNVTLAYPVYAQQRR
Description: ELISA assay for PI3Kβ: in-cell ELISA, phosphorylation of AKT (Ser473) in PC-3 cells. Format: cell-based. The note with it: for pIC50: cellular, pAKT (Ser473), PC-3 cells, LPA stimulation, read-out: IC50 p110β; for α/β ratio: ratio of cellular IC50 values, Table 2. As for the experimental part:
Cellular PI3Kβ activity was determined by measuring the phosphorylation of AKT (Ser473) using an in-cell ELISA assay. PC-3 (prostate carcinoma) cells were obtained from ATCC (ATCC #CRL-1435). Growth medium was DMEM (CellGro #CV-10-013-CV) supplemented with 10% fetal bovine serum, 100 IU/mL penicillin, 100 μg/mL streptomycin, and 1×MEM non-essential amino acids. Phosphate buffered saline (PBS) contained 2.7 M NaCl, 54 mM KCl, 86 mM […] (dibasic, anhydrous), 28 mM […] (monobasic, anhydrous), pH 7.2, 10× stimulation mixture contained 50 μM LPA (Cayman #62215) diluted in serum-free DMEM medium (CellGro #CV-10-013-CV). Compounds for testing were dissolved and serially diluted in 100% DMSO (total of 10 concentrations), then diluted in serum-free DMEM to 2× final assay concentration. 2× fixative solution contained 8% formaldehyde (Amresco #M134) diluted in PBS. Permeabilization solution contained PBS supplemented with 0.1% Triton X-100. Blocking buffer was obtained from LiCor (LiCor #927-40000). Wash buffer contained PBS supplemented with 0.1% Tween-20. Primary antibody solution was rabbit anti-pAKT^S473 monoclonal antibody (Cell Signaling #4060) and mouse anti-total S6 (Santa Cruz #74459) diluted 1:500 and 1:2000, respectively, in blocking buffer. Secondary antibody solution was IRDye 800CW-conjugated goat anti-rabbit IgG (LiCor #926-32211) and IRDye 680LT-conjugated goat anti-mouse IgG (LiCor #926-68020) diluted 1:2000 and 1:1000, respectively, in blocking buffer.
as §1, with “PC-3 cells” for “RAW 264.7 cells”, “at 16000” for “at 70000”, “incubator. 50 μL/well of fresh” for “incubator. Fresh”, “DMEM” for “DMEM (50 μL/well)”, “for 10” for “for 3”, “Images” for “Images were”

T1 sequence (Q9JHG7 whole entry): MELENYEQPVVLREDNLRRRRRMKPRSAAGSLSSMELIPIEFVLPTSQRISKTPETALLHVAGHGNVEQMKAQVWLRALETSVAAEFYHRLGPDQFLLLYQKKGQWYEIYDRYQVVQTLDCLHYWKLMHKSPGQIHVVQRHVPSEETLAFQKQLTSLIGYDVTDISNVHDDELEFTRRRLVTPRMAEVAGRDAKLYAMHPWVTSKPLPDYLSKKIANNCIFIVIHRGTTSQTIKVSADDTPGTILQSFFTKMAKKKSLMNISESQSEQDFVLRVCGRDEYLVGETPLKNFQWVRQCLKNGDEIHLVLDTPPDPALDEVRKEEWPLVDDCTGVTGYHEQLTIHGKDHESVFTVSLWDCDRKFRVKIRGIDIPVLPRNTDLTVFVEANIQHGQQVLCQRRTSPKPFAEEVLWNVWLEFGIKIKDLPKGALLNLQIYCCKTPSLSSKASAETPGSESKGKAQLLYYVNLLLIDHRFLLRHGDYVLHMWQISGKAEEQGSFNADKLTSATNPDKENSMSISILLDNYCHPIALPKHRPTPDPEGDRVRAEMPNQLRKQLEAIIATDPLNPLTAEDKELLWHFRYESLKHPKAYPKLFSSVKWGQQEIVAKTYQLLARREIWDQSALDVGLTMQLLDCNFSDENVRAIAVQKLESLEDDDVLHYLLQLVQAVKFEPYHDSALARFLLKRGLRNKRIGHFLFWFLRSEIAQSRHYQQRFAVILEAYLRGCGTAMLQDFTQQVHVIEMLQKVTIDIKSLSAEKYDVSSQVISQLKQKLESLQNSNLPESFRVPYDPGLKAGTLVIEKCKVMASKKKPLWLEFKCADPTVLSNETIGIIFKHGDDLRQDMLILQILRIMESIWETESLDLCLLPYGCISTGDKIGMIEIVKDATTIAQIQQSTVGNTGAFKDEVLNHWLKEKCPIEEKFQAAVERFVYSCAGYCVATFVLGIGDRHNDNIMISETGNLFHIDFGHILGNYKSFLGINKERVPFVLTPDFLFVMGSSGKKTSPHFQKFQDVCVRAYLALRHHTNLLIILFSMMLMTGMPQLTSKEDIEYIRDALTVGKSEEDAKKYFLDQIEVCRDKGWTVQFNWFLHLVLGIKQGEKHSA

As to `Cc1cc(-c2ccccc2CC(C)(C)Nc2nc(N3CCOCC3)nc(-n3c(C(F)F)nc4ccccc43)n2)ccn1` [Compound A43, 4-(2-(difluoromethyl)-1H-benzo[d]imidazol-1-yl)-N-(2-methyl-1-(2-(2-methylpyridin-4-yl)phenyl)propan-2-yl)-6-morpholino-1,3,5-triazin-2-amine], the results for the pIC50 in assay [1] and in assay [2] were 6.30 to 6.70 and no less than 7.00, respectively. For the same molecule, the α/β ratio result in assay [2] was “C’”.

In the case of `Cc1cccc(CC(C)(C)Nc2nc(N3CCOCC3)nc(-n3c(C(F)F)nc4ccccc43)n2)c1` [Compound A49, 4-(2-(difluoromethyl)-1H-benzo[d]imidazol-1-yl)-N-(2-methyl-1-m-tolylpropan-2-yl)-6-morpholino-1,3,5-triazin-2-amine], the pIC50 is 6.30 to 6.70 in assay [1] and no less than 7.00 in assay [2]. Also, in assay [2], the α/β ratio result was “B’”.

In the case of `CC(C)(Cc1ccccc1)Nc1nc(N2CCOCC2)nc(-n2c(C(F)F)nc3ccccc32)n1` [Compound A14, 4-(2-(difluoromethyl)-1H-benzo[d]imidazol-1-yl)-N-(2-methyl-1-phenylpropan-2-yl)-6-morpholino-1,3,5-triazin-2-amine], in assay [1], the negative logarithm of the IC50 (pIC50) was 6.30 to 6.70. For the same molecule, in assay [2], the pIC50 is no less than 7.00 and the α/β ratio entry is “B’”.

`CC(C)(Cc1cccc(F)c1)Nc1nc(N2CCOCC2)nc(-n2c(C(F)F)nc3ccccc32)n1` [Compound A39, 4-(2-(difluoromethyl)-1H-benzo[d]imidazol-1-yl)-N-(1-(3-fluorophenyl)-2-methylpropan-2-yl)-6-morpholino-1,3,5-triazin-2-amine]: the pIC50 was 6.70 to 7.00 in assay [1] and no less than 7.00 in assay [2]. Also, the α/β ratio result in assay [2] is “A’”.

For `CN1CCN(c2cc(-c3ccccc3CC(C)(C)Nc3nc(N4CCOCC4)nc(-n4c(C(F)F)nc5ccccc54)n3)ccn2)CC1` [Compound A64, 4-(2-(difluoromethyl)-1H-benzo[d]imidazol-1-yl)-N-(2-methyl-1-(2-(2-(4-methylpiperazin-1-yl)pyridin-4-yl)phenyl)propan-2-yl)-6-morpholino-1,3,5-triazin-2-amine], in assay [1], the pIC50 is less than 6.30. Moreover, in assay [2], the pIC50 is no less than 7.00 and the α/β ratio result is “A’”.

`Cn1nccc1-c1ccccc1CC(C)(C)Nc1nc(N2CCOCC2)nc(-n2c(C(F)F)nc3ccccc32)n1` [Compound A46, 4-(2-(difluoromethyl)-1H-benzo[d]imidazol-1-yl)-N-(2-methyl-1-(2-(1-methyl-1H-pyrazol-5-yl)phenyl)propan-2-yl)-6-morpholino-1,3,5-triazin-2-amine]: the negative-log IC50 (pIC50) in assay [1] was 6.30 to 6.70. Further, in assay [2], the pIC50 is no less than 7.00 and the α/β ratio entry is given as “A’”.

Regarding `CC(C)(Cc1ccccc1-c1cncnc1)Nc1nc(N2CCOCC2)nc(-n2c(C(F)F)nc3ccccc32)n1` [Compound A63, 4-(2-(difluoromethyl)-1H-benzo[d]imidazol-1-yl)-N-(2-methyl-1-(2-(pyrimidin-5-yl)phenyl)propan-2-yl)-6-morpholino-1,3,5-triazin-2-amine], the pIC50 in assay [1] is less than 6.30. Moreover, in assay [2], the pIC50 was no less than 7.00 and the α/β ratio entry is reported as “A’”.

On to `CN(C)CCCc1ccccc1CC(C)(C)Nc1nc(N2CCOCC2)nc(-n2c(C(F)F)nc3ccccc32)n1` [Compound A76, 4-(2-(difluoromethyl)-1H-benzo[d]imidazol-1-yl)-N-(1-(2-(3-(dimethylamino)propyl)phenyl)-2-methylpropan-2-yl)-6-morpholino-1,3,5-triazin-2-amine], for which the pIC50 in assay [1] was less than 6.30. For the same molecule, in assay [2], the pIC50 is no less than 7.00 and the α/β ratio entry is reported as “A’”.

Take `CC(C)(Cc1ccccc1-c1cccc(CN2CCOCC2)c1)Nc1nc(N2CCOCC2)nc(-n2c(C(F)F)nc3ccccc32)n1` [Compound A65, 4-(2-(difluoromethyl)-1H-benzo[d]imidazol-1-yl)-N-(2-methyl-1-(3′-(morpholinomethyl)biphenyl-2-yl)propan-2-yl)-6-morpholino-1,3,5-triazin-2-amine]: in assay [1], the pIC50 was 6.30 to 6.70. In assay [2], the pIC50 is no less than 7.00 and the α/β ratio result is “A’”.

As to `CC(C)(Cc1ccccc1-c1cn[nH]c1)Nc1nc(N2CCOCC2)nc(-n2c(C(F)F)nc3ccccc32)n1` [Compound A44, 4-(2-(difluoromethyl)-1H-benzo[d]imidazol-1-yl)-N-(1-(2-(1H-pyrazol-4-yl)phenyl)-2-methylpropan-2-yl)-6-morpholino-1,3,5-triazin-2-amine], in assay [1], the pIC50 is no less than 7.00. In assay [2], the pIC50 was no less than 7.00 and the α/β ratio result is on record as “A’”.

With `CC(=O)N1CCC(c2ccccc2CC(C)(C)Nc2nc(N3CCOCC3)nc(-n3c(C(F)F)nc4ccccc43)n2)CC1` [Compound A72, 4-(2-(difluoromethyl)-1H-benzo[d]imidazol-1-yl)-N-(2-methyl-1-(2-(1-acetylpiperidin-4-yl)phenyl)propan-2-yl)-6-morpholino-1,3,5-triazin-2-amine], in assay [1], the pIC50 was no less than 7.00. In assay [2], the pIC50 was no less than 7.00 and the α/β ratio result is “A’”.

Regarding `COc1cc(CC(C)(C)Nc2nc(N3CCOCC3)nc(-n3c(C(F)F)nc4ccccc43)n2)ccc1F` [Compound A50, 4-(2-(difluoromethyl)-1H-benzo[d]imidazol-1-yl)-N-(1-(4-fluoro-3-methoxyphenyl)-2-methylpropan-2-yl)-6-morpholino-1,3,5-triazin-2-amine], the pIC50 in assay [1] is 6.30 to 6.70. Also, in assay [2], the pIC50 was no less than 7.00 and the α/β ratio result is “B’”.
